From publication PMC8924211 (Nature Communications, 2022)
Where a chain is given by its changes, count along the chain named.

Columns and labels:
Experiment in all cases: Calcium assay, HEK293/Gα16 cells, GAL2R mutants
Type in all cases: cell-based
GAL2R mutants [1] = biological target: T1, GAL2R mutants (Homo sapiens, UniProt O43603, Q82A); conditions: GAL2R Q822.61A
T1 construct: expressed in transfected cells; host or cells: HEK293
T1 sequence (O43603 1-387 Q82A): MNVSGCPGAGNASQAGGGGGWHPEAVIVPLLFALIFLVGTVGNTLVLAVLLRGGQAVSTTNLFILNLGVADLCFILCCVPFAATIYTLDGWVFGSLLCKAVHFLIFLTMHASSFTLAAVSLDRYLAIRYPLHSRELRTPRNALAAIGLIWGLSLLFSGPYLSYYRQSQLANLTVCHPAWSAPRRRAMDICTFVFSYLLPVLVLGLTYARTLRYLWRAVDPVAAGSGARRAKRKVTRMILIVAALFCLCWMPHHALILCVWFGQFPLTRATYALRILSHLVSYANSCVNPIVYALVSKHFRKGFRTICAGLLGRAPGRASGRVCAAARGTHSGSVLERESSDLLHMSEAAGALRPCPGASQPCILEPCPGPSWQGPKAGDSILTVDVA

GAL2R mutants [2] = biological target: T2, GAL2R mutants (Homo sapiens, UniProt O43603, L172A); conditions: GAL2R L172ECL2A
T2 construct: expressed in transfected cells; host or cells: HEK293
T2 sequence (O43603 1-387 L172A): T1 sequence (O43603 1-387 Q82A) with A82Q, L172A

GAL2R mutants [3] = biological target: T3, GAL2R mutants (Homo sapiens, UniProt O43603, F264A); conditions: GAL2R F264ECL3A
T3 construct: expressed in transfected cells; host or cells: HEK293
T3 sequence (O43603 1-387 F264A): T1 sequence (O43603 1-387 Q82A) with A82Q, F264A

GAL2R mutants [4] = biological target: T4, GAL2R mutants (Homo sapiens, UniProt O43603, R184A); conditions: GAL2R R1845.35A
T4 construct: expressed in transfected cells; host or cells: HEK293
T4 sequence (O43603 1-387 R184A): T1 sequence (O43603 1-387 Q82A) with A82Q, R184A

GAL2R mutants [5] = biological target: T5, GAL2R mutants (Homo sapiens, UniProt O43603, Y86A); conditions: GAL2R Y862.65A
T5 construct: expressed in transfected cells; host or cells: HEK293
T5 sequence (O43603 1-387 Y86A): T1 sequence (O43603 1-387 Q82A) with A82Q, Y86A

[6] = response of 100 μM spexin compared to WT
[7] = response of 100 μM spexin compared to WT, mean ± S.E.M.

In the case of spexin, the Emax (GAL2R mutants [1]; [6]) was “NR (NR, no response, refers to response < 10% compared to WT receptor (spexin at 100 μM))”, the Emax (GAL2R mutants [1]; spexin, replicate 1) was “no response” and the Emax (GAL2R mutants [1]; spexin, replicate 2) was “no response”. The Emax (GAL2R mutants [1]; spexin, replicate 3) was “no response”, the Emax (GAL2R mutants [2]; [7]) was 33.56±1.2% and the EC50 (GAL2R mutants [2]; spexin, replicate 1) was 3.125 µM. It also gave an Emax (GAL2R mutants [2]; spexin, replicate 1) of 31.8616%, an EC50 (GAL2R mutants [2]; spexin, replicate 2) of 10.79 µM and an Emax (GAL2R mutants [2]; spexin, replicate 2) of 33.0538%. It also gave an EC50 (GAL2R mutants [2]; spexin, replicate 3) of 12.08 µM, an Emax (GAL2R mutants [2]; spexin, replicate 3) of 35.752% and an Emax (GAL2R mutants [3]; [7]) of 40.26±1.3%. It also gave an Emax (GAL2R mutants [3]; spexin, replicate 1) of 42.8699%, an Emax (GAL2R mutants [3]; spexin, replicate 2) of 39.5775% and an Emax (GAL2R mutants [3]; spexin, replicate 3) of 38.3476%. It also gave an Emax (GAL2R mutants [4]; [7]) of 32.36±1.6%, an EC50 (GAL2R mutants [4]; spexin, replicate 1) of 0.3712 µM and an Emax (GAL2R mutants [4]; spexin, replicate 1) of 29.7886%. For the same substance, the EC50 (GAL2R mutants [4]; spexin, replicate 2) was 0.9731 µM, the Emax (GAL2R mutants [4]; spexin, replicate 2) was 32.1089% and the EC50 (GAL2R mutants [4]; spexin, replicate 3) was 10.58 µM. The Emax (GAL2R mutants [4]; spexin, replicate 3) was 35.1728%, the Emax (GAL2R mutants [5]; [6]) was “NR (NR, no response, refers to response < 10% compared to WT receptor (spexin at 100 μM))” and the Emax (GAL2R mutants [5]; spexin, replicate 1) was “no response”. For the same substance, the Emax (GAL2R mutants [5]; spexin, replicate 2) was “no response” and the Emax (GAL2R mutants [5]; spexin, replicate 3) was “no response”.
